Data: publication PMC8691714 (Cancer Research Communications, 2021)

Legend:
[1] = design: method as in earlier work; details: unbound drug in the plasma; PBPK model parameter; ref [17, 18] and Drugbank; cited from earlier work
[2] = design: method as in earlier work; details: acid dissociation constant; PBPK model parameter; ref [17, 18] and Drugbank; cited from earlier work
[3] = In vivo pharmacokinetic study in mice, intravenous ibrutinib (plasma); details: for AUC(0-t) / Cmax: female, FVB, mouse, plasma, iv, 1 mg/kg, ibrutinib 1 mg/kg IV, mean (SD); for AUC(0-t): Ibrutinib AUC(0-last); for Cmax: Ibrutinib Cmax
Procedure: (§1) Experiments were performed with male and female mice from inbred wild-type strains (FVB, C57BL/6, DBA) or with age- and sex-matched genetically engineered mice with a deficiency of the Cyp3a locus [(8 genes; FVB.129P2-Cyp3a13^tm1Ahs Del (5Cyp3a57-Cyp3a59)1Ahs); ref. [16]; CYP3A^−/−], a deficiency of the intestinal transporter OATP2B1 (ref. [17]; OATP2B1 ^−/−), or the hepatic transporter OATP1B2 (ref. [18]; OATP1B2 ^−/−). […] The studies were approved by the University Laboratory Animal Resources Animal Care and Use Committee at The Ohio State University (Columbus, OH). […] For in vivo studies, drugs were prepared in standard vehicles ([19, 20]). Details regarding the preparation of drugs are provided in the Supplementary Methods.
(§2) Pharmacokinetic studies were performed as described previously ([21]). Further details are provided in the Supplementary Methods.
(§3) The lower limit of quantification was 5 ng/mL, using 5-μL sample volumes. Details regarding the analytic method are provided in the Supplementary Methods.
(§4) Ketoconazole was prepared for oral administration as a 10-mg/mL suspension in PEG400, and cobicistat as a 6-mg/mL suspension in corn oil.
(§5) Pharmacokinetic studies were performed as previously described.

[4] = In vivo pharmacokinetic study in mice, oral ibrutinib (plasma, LC-MS/MS); details: for AUC(0-t) / Cmax / bioavailability: plasma, po; for AUC(0-t): Ibrutinib AUC(0-last); for Cmax: Ibrutinib Cmax; for increase in ibrutinib AUC: male FVB wild-type mice; for systemic levels of ibrutinib: ibrutinib 10 mg/kg orally
Procedure: as §1, §2, §3, §4, §5
The analytical equipment consisted of a Vanquish UHPLC system, a TSQ Quantum Ultra triple quadrupole mass spectrometer from Thermo Fisher Scientific, and Thermo Trace Finder General Quan system software (version 3.3). An Accucore Vanquish C18 column (100 × 2.1 mm, dp = 1.5 μm; Thermo Fisher Scientific) was protected by a corresponding XBridgeBEH C18, 5-μm guard column. The injection volume of sample was 5.0 μL. The temperature of the autosampler rack was 4 °C, and the temperature of the column was 40 °C. Mobile phase A consisted of water with 0.1% (v/v) formic acid and mobile phase B consisted of acetonitrile: methanol (1:3) with 0.1% (v/v) formic acid. The total run time was 5 min. The mobile phase was delivered at a flow rate of 0.4 mL/min, and the optimized gradient contained time-varying amounts of mobile phase B, as follows: 0-0.5 min, 10% B; 0.5-1.5 min, 95% B; 1.5-2.9 min, 95% B; 2.9-3.0 min, 10% B; and 3.0-5.0 min, 10% B. The mass spectrometric assay settings included a positive voltage applied to the ESI capillary of 3500 V, a capillary temperature of 342 °C, and a vaporizer temperature of 358 °C. Argon was used a collision gas at a pressure of 1.5 mTorr. […] For sample extraction by protein precipitation, 5 µL of plasma, 5 µL of microsomal suspension, or 10 µL of homogenized tissue were added to a tube containing 60 µL of internal standard solution and 20 µL of methanol. Samples were then vortex-mixed, centrifuged at 13,000 rpm for 9.5 min, and supernatants collected and stored frozen until analysis. […] The lower limit of quantification was 5 ng/mL, using 5-µL sample volumes.

[5] = population PK model estimate, mice
[6] = female CYP3A(-/-) mice, co-treatment cobicistat
[7] = female CYP3A(-/-) mice, co-treatment corn oil
[8] = female wild-type FVB mice, co-treatment cobicistat
[9] = female wild-type FVB mice, co-treatment corn oil
[10] = female, C57BL/6, mouse, 10 mg/kg, female OATP2B1(-/-) mice, ibrutinib 10 mg/kg PO, no co-treatment, mean (SD)
[11] = female, C57BL/6, mouse, 10 mg/kg, female wild-type C57BL/6 mice, ibrutinib 10 mg/kg PO, no co-treatment, mean (SD)
[12] = female, DBA, mouse, 10 mg/kg, female OATP1B2(-/-) mice, ibrutinib 10 mg/kg PO, no co-treatment, mean (SD)
[13] = female, DBA, mouse, 10 mg/kg, female wild-type DBA mice, ibrutinib 10 mg/kg PO, no co-treatment, mean (SD)
[14] = female, FVB, mouse, 4 mg/kg, female wild-type FVB mice, ibrutinib 4 mg/kg oral, cotreatment cobicistat 30 mg/kg, mean (SE)
[15] = female, FVB, mouse, 10 mg/kg, female CYP3A-/- mice, ibrutinib 10 mg/kg oral, cotreatment cobicistat 30 mg/kg, mean (SE)
[16] = female, FVB, mouse, 10 mg/kg, female CYP3A-/- mice, ibrutinib 10 mg/kg oral, cotreatment corn oil, mean (SE)
[17] = female, FVB, mouse, 10 mg/kg, female CYP3A-/- mice, ibrutinib 10 mg/kg oral, no cotreatment, mean (SE)
[18] = female, FVB, mouse, 10 mg/kg, female wild-type FVB mice, ibrutinib 10 mg/kg oral single dose, cotreatment cobicistat 30 mg/kg, mean (SE)
[19] = female, FVB, mouse, 10 mg/kg, female wild-type FVB mice, ibrutinib 10 mg/kg oral single dose, cotreatment corn oil, mean (SE)
[20] = female, FVB, mouse, 10 mg/kg, female wild-type FVB mice, ibrutinib 10 mg/kg oral, cotreatment PEG400, mean (SE)
[21] = female, FVB, mouse, 10 mg/kg, female wild-type FVB mice, ibrutinib 10 mg/kg oral, cotreatment cobicistat 30 mg/kg, steady-state, mean (SE)
[22] = female, FVB, mouse, 10 mg/kg, female wild-type FVB mice, ibrutinib 10 mg/kg oral, cotreatment corn oil, steady-state, mean (SE)
[23] = female, FVB, mouse, 10 mg/kg, female wild-type FVB mice, ibrutinib 10 mg/kg oral, cotreatment ketoconazole 50 mg/kg, mean (SE)
[24] = female, FVB, mouse, 10 mg/kg, female wild-type FVB mice, ibrutinib 10 mg/kg oral, no cotreatment, mean (SE)
[25] = female, FVB, mouse, 30 mg/kg, female wild-type FVB mice, ibrutinib 30 mg/kg oral, no cotreatment, mean (SE)
[26] = male, C57BL/6, mouse, 10 mg/kg, male OATP2B1(-/-) mice, ibrutinib 10 mg/kg PO, no co-treatment, mean (SD)
[27] = male, C57BL/6, mouse, 10 mg/kg, male wild-type C57BL/6 mice, ibrutinib 10 mg/kg PO, no co-treatment, mean (SD)
[28] = male, FVB, mouse, 10 mg/kg, male wild-type FVB mice, ibrutinib 10 mg/kg PO, co-treatment No Vehicle (cobicistat experiment), mean (SD)
[29] = male, FVB, mouse, 10 mg/kg, male wild-type FVB mice, ibrutinib 10 mg/kg PO, co-treatment None (ketoconazole experiment), mean (SD)
[30] = male, FVB, mouse, 10 mg/kg, male wild-type FVB mice, ibrutinib 10 mg/kg PO, co-treatment PEG400, mean (SD)
[31] = male, FVB, mouse, 10 mg/kg, male wild-type FVB mice, ibrutinib 10 mg/kg PO, co-treatment cobicistat, mean (SD)
[32] = male, FVB, mouse, 10 mg/kg, male wild-type FVB mice, ibrutinib 10 mg/kg PO, co-treatment corn oil, mean (SD)
[33] = male, FVB, mouse, 10 mg/kg, male wild-type FVB mice, ibrutinib 10 mg/kg PO, co-treatment ketoconazole, mean (SD)

C=CC(=O)N1CCC[C@@H](n2nc(-c3ccc(Oc4ccccc4)cc3)c3c(N)ncnc32)C1 [Ibrutinib]
fu, plasma [1]: 0.027
pKa [2]: 3.78
AUC(0-t) [3, 6]: 895 ng·h/mL
AUC(0-t) [3, 7]: 1170 ng·h/mL
AUC(0-t) [3, 8]: 1010 ng·h/mL
AUC(0-t) [3, 9]: 521 ng·h/mL
Cmax [3, 6]: 1440 ng/mL
Cmax [3, 7]: 1860 ng/mL
Cmax [3, 8]: 1540 ng/mL
Cmax [3, 9]: 1410 ng/mL
increase in ibrutinib exposure ([3]; intravenous ibrutinib, CYP3A deficiency vs wild-type): 2 fold
effect of cobicistat on exposure to ibrutinib ([3]; intravenous ibrutinib, CYP3A-/- mice): did not further increase exposure
increase in ibrutinib exposure ([3]; intravenous ibrutinib, wild-type mice, oral cobicistat pretreatment vs vehicle): 2 fold
ibrutinib AUC increase ([4]; CYP3A-/- mice compared with wild-type mice, oral ibrutinib): about 8 fold
pharmacokinetic profile of ibrutinib with vs without cobicistat ([4]; CYP3A-/- mice, oral ibrutinib, P > 0.05): similar
increase in exposure to ibrutinib ([4]; female wild-type mice, oral ibrutinib 10 mg/kg 30 minutes after oral ketoconazole 50 mg/kg vs vehicle): about 11 fold
AUC(0-t) [4, 10]: 1750 ng·h/mL
AUC(0-t) [4, 11]: 1450 ng·h/mL
Cmax [4, 10]: 1250 ng/mL
Cmax [4, 11]: 1420 ng/mL
AUC(0-t) [4, 12]: 2100 ng·h/mL
AUC(0-t) [4, 13]: 2720 ng·h/mL
Cmax [4, 12]: 2170 ng/mL
Cmax [4, 13]: 1960 ng/mL
AUC(0-t) [4, 14]: 1200 ng·h/mL
Cmax [4, 14]: 589 ng/mL
bioavailability ([4]; female, FVB, mouse, 4 mg/kg, female wild-type FVB mice, ibrutinib 4 mg/kg oral, cotreatment cobicistat 30 mg/kg): 58%
AUC(0-t) [4, 15]: 1660 ng·h/mL
AUC(0-t) [4, 16]: 1410 ng·h/mL
AUC(0-t) [4, 17]: 2350 ng·h/mL
AUC(0-t) [4, 18]: 2600 ng·h/mL
AUC(0-t) [4, 19]: 284 ng·h/mL
AUC(0-t) [4, 20]: 768 ng·h/mL
AUC(0-t) [4, 21]: 2250 ng·h/mL
AUC(0-t) [4, 22]: 459 ng·h/mL
AUC(0-t) [4, 23]: 8320 ng·h/mL
AUC(0-t) [4, 24]: 301 ng·h/mL
Cmax [4, 15]: 845 ng/mL
Cmax [4, 16]: 1390 ng/mL
Cmax [4, 17]: 1760 ng/mL
Cmax [4, 18]: 1440 ng/mL
Cmax [4, 19]: 292 ng/mL
Cmax [4, 20]: 663 ng/mL
Cmax [4, 21]: 925 ng/mL
Cmax [4, 22]: 394 ng/mL
Cmax [4, 23]: 3100 ng/mL
Cmax [4, 24]: 430 ng/mL
bioavailability ([4]; female, FVB, mouse, 10 mg/kg, female CYP3A-/- mice, ibrutinib 10 mg/kg oral, cotreatment cobicistat 30 mg/kg): 32%
bioavailability ([4]; female, FVB, mouse, 10 mg/kg, female CYP3A-/- mice, ibrutinib 10 mg/kg oral, cotreatment corn oil): 27%
bioavailability ([4]; female, FVB, mouse, 10 mg/kg, female CYP3A-/- mice, ibrutinib 10 mg/kg oral, no cotreatment): 45%
bioavailability ([4]; female, FVB, mouse, 10 mg/kg, female wild-type FVB mice, ibrutinib 10 mg/kg oral single dose, cotreatment cobicistat 30 mg/kg): 50%
bioavailability ([4]; female, FVB, mouse, 10 mg/kg, female wild-type FVB mice, ibrutinib 10 mg/kg oral single dose, cotreatment corn oil): 5.5%
bioavailability ([4]; female, FVB, mouse, 10 mg/kg, female wild-type FVB mice, ibrutinib 10 mg/kg oral, cotreatment cobicistat 30 mg/kg, steady-state): 43%
bioavailability ([4]; female, FVB, mouse, 10 mg/kg, female wild-type FVB mice, ibrutinib 10 mg/kg oral, cotreatment corn oil, steady-state): 8.8%
bioavailability ([4]; female, FVB, mouse, 10 mg/kg, female wild-type FVB mice, ibrutinib 10 mg/kg oral, no cotreatment): 5.8%
AUC(0-t) [4, 25]: 1710 ng·h/mL
Cmax [4, 25]: 554 ng/mL
bioavailability ([4]; female, FVB, mouse, 30 mg/kg, female wild-type FVB mice, ibrutinib 30 mg/kg oral, no cotreatment): 11%
increase in ibrutinib AUC ([4]; cobicistat): 7 fold
increase in ibrutinib AUC ([4]; ketoconazole): 10 fold
AUC(0-t) [4, 26]: 1770 ng·h/mL
AUC(0-t) [4, 27]: 1390 ng·h/mL
Cmax [4, 26]: 1630 ng/mL
Cmax [4, 27]: 1380 ng/mL
AUC(0-t) [4, 28]: 520 ng·h/mL
AUC(0-t) [4, 29]: 429 ng·h/mL
AUC(0-t) [4, 30]: 636 ng·h/mL
AUC(0-t) [4, 31]: 4340 ng·h/mL
AUC(0-t) [4, 32]: 663 ng·h/mL
AUC(0-t) [4, 33]: 6640 ng·h/mL
Cmax [4, 28]: 360 ng/mL
Cmax [4, 29]: 404 ng/mL
Cmax [4, 30]: 348 ng/mL
Cmax [4, 31]: 1360 ng/mL
Cmax [4, 32]: 243 ng/mL
Cmax [4, 33]: 1260 ng/mL
systemic levels of ibrutinib ([4]; mice lacking OATP1B2 vs wild-type): not altered
systemic levels of ibrutinib ([4]; mice lacking OATP2B1 vs wild-type): not altered
increase in exposure to ibrutinib ([4]; wild-type mice, oral ibrutinib 10 mg/kg after cobicistat 30 mg/kg, single dose or steady-state (day 5)): about 9 fold
IIV Ka ([5]; inter-individual variability): 0.209
IIV Lag ([5]; inter-individual variability): 0.0264
IIV Vc ([5]; inter-individual variability): 0.167
IIV Vp ([5]; inter-individual variability): 0.295
Ka (absorption rate constant) [5]: 0.340 h⁻¹
Lag (lag time) [5]: 0.0324 h
RV IBU ([5]; residual variability): 0.425
